Results on one compound are retold here after patent US10716869B2, “Radiolabeled macrocyclic EGFR inhibitor” (Oncodesign SA, priority 2016, dated 2020).

In data set [1] the test system is NCI-H1975 tumors (double mutation). Briefly: in vivo specificity: competition for uptake of Compound (I). Set-up: species or system rats. Conditions: gefitinib 2 mg/rat or Compound (Ia) 1 mg/rat.
In data set [2] the target is EGFR phosphorylation in NCI-H441 (Homo sapiens, UniProt P00533). Briefly: EGFR Y1068 phosphorylation, Western blot. The following applies: NCI-H441, 10 ng/ml EGF.
Data set [3] deals with double mutant EGFR expressed by NCI-H1975 (Homo sapiens, UniProt P00533, L858R/T790M). Briefly: EGFR Y1068 phosphorylation, Western blot.
Data set [4] concerns NCI-H1975 (EGFR L858R/T790M). Briefly: MTS cell viability assay, 72 hours. In kind it is cell-based. The following applies: Homo sapiens, NCI-H1975, 72 h, read-out: Cellular IC50 NCI-H1975 (EGFR L858R/T790M). As to the method: (§1) The cell lines that were used to assay the cellular activity of the compounds are detailed in table 3 hereafter:
(§2) Tumor cells grew as monolayer at 37° C. in a humidified atmosphere (5% CO2) in complete culture medium adapted to each cell line. The cellular activity of the compounds was assessed by measuring the viability of cancer cell in MTS assay using a tetrazolium compound (MTS, 3-(4,5-dimethylthiazol-2-yl)-5-(3-carboxymethoxy phenyl)-2-(4-sulfophenyl)-2H-tetrazolium) and an electron coupling reagent named PMS (phenazine methosulfate). MTS is bioreduced by cells into a formazan product that is directly soluble in culture medium without processing. The cells were seeded 24 hours before treatment at the appropriate density in their culture medium to be near 90% of confluence at the end of experiment in vehicle treated conditions. After addition of compounds, the cells were incubated for 72 hours.

Data set [5] has as its system MCF-7. The experiment in a line: MTS cell viability assay, 72 hours. The class given is cell-based. Conditions: Homo sapiens, MCF7, 72 h, negative control, does not express EGFR, read-out: Cellular IC50 MCF-7. The protocol: as §1, §2
Data set [6] has as its target constitutively active EGFR in NCI-H3255 (Homo sapiens, UniProt P00533, L858R). The experiment in a line: EGFR Y1068 phosphorylation, Western blot.
Data set [7] deals with T1, EGFR T790M/L858R (human, 672-1210) (Homo sapiens, UniProt P00533, L858R/T790M).
T1 construct: (human, 672-1210)
Briefly: radiometric protein kinase assay (33PanQinase Activity Assay). Conditions: Tests 1-3 are repeat determinations; read-out: Biochemical IC50 EGFR L858R/T790M. As to the method: (§3) The compounds were tested in 100% DMSO, all recombinant protein kinases and substrates with respective concentration are described in table 1.

The target in data set [8] is T2, EGFR L858R (human, 672-1210) (Homo sapiens, UniProt P00533, L858R).
T2 construct: (human, 672-1210)
Described as above. The following applies: Tests 1-3 are repeat determinations; read-out: Biochemical IC50 EGFR L858R. As to the method: as §3

In data set [9] the target is T3, EGFR wt (human, 672-1210) (Homo sapiens, UniProt P00533).
T3 construct: (human, 672-1210)
The description is as above. The following applies: Tests 1-3 are repeat determinations; read-out: Biochemical IC50 EGFR WT (activated). The protocol: as §3

In data set [10] the test system is WT NCI-H441 tumors. Briefly: in vivo specificity: competition for uptake of Compound (I). On the set-up: species or system rats. The following applies: gefitinib 2 mg/rat or Compound (Ia) 1 mg/rat.
The nature of data set [11]: kinetic solubility in PBS at pH 7.4. The class given is physicochemical. The following applies: pH 7.4, aqueous buffer, kinetic from dmso stock. As to the method: The kinetic solubility of the compounds was assessed in PBS at pH 7.4.
The nature of data set [12]: metabolic microsomal stability, human liver microsomes. The following applies: pH 7.4, 0.5 mg/mL protein. The class given is in vitro ADME. As to the method: (§4) Metabolic microsomal stability was performed on human and rat liver microsomes. Microsomes (final protein concentration 0.5 mg/mL), 0.1 M phosphate buffer pH 7.4 and test compound (final substrate concentration=3 μM; final DMSO concentration=0.25%) are pre-incubated at 37° C. prior to the addition of NADPH (final concentration=1 mM) to initiate the reaction. Analysis is done with generic LC-MS/MS conditions to determine half-life and intrinsic clearance using standard equations. […] In human, Compound (Ia) metabolic stability was better than in rat and favorable for clinical studies.

Data set [13] has as its system NCI-H3255 tumors (simple mutation). Briefly: in vivo specificity: competition for uptake of Compound (I). The following applies: gefitinib 2 mg/rat or Compound (Ia) 1 mg/rat. On the set-up: species or system rats.
In data set [14] the test system is NCI-H441 (EGFR WT). The experiment in a line: MTS cell viability assay, 72 hours. The class given is cell-based, Human. The following applies: Homo sapiens, NCI-H441, 72 h, read-out: Cellular IC50 NCI-H441 (EGFR WT). The protocol:
as §1, §2

Data set [15] has as its system NCI-H3255 (EGFR_L858R). The experiment in a line: MTS cell viability assay, 72 hours. In kind it is cell-based, Human. Conditions: Homo sapiens, NCI-H3255, 72 h, read-out: Cellular IC50 NCI-H3255 (EGFR_L858R). The protocol: as §1, §2
A short description of data set [16]: metabolic microsomal stability, rat liver microsomes. The following applies: pH 7.4, 0.5 mg/mL protein. In kind it is in vitro ADME. As to the method: as §4

Structures are written as SMILES. Converted amounts (≈) assume the structure as drawn. “And” between values parts separate entries of the source, which are not always exact repeats. Identical values can stand only once.

T1 sequence (P00533 672-1210 T790M/L858R): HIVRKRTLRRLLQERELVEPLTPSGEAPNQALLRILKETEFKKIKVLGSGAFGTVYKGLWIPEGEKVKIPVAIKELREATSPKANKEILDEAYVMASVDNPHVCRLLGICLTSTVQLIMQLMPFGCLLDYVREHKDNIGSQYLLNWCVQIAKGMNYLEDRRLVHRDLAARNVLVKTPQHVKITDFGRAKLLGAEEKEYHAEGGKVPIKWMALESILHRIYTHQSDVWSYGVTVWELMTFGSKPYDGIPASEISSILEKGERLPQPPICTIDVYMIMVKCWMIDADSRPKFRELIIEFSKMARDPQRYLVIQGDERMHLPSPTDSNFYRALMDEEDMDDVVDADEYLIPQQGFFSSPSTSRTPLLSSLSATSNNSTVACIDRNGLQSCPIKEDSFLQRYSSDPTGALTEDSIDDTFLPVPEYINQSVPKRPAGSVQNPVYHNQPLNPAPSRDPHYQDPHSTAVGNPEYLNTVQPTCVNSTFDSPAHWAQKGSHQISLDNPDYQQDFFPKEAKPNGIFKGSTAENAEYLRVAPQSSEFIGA
T2 sequence (P00533 672-1210 L858R): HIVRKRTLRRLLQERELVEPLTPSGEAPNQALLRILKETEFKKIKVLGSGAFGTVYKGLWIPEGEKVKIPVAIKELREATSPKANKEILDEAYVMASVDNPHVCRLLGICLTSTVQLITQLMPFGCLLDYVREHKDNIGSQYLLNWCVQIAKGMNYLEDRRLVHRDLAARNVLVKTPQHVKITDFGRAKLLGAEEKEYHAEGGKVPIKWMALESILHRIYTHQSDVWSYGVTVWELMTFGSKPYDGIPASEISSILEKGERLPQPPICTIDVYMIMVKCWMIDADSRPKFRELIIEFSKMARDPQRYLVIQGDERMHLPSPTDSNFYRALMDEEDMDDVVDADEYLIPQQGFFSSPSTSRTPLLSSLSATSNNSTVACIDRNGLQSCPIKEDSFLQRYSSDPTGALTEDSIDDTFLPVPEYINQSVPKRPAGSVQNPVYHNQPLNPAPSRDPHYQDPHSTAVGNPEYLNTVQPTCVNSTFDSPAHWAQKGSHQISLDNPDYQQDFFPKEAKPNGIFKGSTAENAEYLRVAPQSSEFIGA
T3 sequence (P00533 672-1210): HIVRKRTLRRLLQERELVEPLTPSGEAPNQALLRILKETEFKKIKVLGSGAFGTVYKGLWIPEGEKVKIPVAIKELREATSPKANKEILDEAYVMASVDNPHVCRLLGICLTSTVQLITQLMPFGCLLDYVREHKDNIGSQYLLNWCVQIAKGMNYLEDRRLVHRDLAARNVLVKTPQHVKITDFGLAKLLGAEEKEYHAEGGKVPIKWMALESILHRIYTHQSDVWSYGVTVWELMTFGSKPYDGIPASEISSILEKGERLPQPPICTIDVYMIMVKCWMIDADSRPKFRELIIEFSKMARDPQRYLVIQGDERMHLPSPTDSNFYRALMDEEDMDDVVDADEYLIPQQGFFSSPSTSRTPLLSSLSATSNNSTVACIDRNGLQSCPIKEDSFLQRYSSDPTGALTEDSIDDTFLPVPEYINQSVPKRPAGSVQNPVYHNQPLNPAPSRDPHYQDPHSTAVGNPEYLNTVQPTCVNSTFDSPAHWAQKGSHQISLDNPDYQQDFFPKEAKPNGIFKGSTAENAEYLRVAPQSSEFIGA
double mutant EGFR expressed by NCI-H1975, sequence (P00533 25-1210 T790M/L858R): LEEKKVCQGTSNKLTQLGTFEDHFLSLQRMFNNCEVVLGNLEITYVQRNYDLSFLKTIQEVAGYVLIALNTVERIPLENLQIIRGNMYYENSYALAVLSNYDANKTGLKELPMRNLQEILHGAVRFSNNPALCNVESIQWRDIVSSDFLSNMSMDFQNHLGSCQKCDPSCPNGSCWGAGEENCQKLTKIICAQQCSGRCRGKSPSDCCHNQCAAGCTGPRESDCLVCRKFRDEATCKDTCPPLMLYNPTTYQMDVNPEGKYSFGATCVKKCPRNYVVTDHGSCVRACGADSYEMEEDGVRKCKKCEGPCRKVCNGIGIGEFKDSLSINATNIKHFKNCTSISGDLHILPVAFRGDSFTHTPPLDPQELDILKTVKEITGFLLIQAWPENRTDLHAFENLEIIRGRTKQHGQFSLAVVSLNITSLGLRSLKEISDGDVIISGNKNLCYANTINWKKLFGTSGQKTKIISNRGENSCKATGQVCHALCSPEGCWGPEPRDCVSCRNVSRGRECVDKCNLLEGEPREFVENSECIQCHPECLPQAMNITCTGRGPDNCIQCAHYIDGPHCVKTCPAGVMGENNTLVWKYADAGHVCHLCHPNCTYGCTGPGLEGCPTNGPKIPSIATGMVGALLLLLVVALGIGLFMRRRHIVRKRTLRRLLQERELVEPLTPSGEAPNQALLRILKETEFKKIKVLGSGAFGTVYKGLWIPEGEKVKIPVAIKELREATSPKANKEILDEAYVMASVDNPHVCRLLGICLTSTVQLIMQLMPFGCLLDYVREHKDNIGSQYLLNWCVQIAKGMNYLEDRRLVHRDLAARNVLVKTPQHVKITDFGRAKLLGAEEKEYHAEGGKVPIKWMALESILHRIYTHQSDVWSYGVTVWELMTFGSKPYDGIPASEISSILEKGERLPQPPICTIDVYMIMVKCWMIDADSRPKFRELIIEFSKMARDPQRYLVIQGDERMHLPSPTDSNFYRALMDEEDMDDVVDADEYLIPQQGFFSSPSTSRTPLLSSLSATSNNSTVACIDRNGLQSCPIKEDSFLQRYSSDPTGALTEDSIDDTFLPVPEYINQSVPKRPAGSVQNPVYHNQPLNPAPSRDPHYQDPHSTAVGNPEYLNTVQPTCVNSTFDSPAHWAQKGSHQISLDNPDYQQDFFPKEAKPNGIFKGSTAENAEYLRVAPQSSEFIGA
constitutively active EGFR in NCI-H3255, sequence (P00533 25-1210 L858R): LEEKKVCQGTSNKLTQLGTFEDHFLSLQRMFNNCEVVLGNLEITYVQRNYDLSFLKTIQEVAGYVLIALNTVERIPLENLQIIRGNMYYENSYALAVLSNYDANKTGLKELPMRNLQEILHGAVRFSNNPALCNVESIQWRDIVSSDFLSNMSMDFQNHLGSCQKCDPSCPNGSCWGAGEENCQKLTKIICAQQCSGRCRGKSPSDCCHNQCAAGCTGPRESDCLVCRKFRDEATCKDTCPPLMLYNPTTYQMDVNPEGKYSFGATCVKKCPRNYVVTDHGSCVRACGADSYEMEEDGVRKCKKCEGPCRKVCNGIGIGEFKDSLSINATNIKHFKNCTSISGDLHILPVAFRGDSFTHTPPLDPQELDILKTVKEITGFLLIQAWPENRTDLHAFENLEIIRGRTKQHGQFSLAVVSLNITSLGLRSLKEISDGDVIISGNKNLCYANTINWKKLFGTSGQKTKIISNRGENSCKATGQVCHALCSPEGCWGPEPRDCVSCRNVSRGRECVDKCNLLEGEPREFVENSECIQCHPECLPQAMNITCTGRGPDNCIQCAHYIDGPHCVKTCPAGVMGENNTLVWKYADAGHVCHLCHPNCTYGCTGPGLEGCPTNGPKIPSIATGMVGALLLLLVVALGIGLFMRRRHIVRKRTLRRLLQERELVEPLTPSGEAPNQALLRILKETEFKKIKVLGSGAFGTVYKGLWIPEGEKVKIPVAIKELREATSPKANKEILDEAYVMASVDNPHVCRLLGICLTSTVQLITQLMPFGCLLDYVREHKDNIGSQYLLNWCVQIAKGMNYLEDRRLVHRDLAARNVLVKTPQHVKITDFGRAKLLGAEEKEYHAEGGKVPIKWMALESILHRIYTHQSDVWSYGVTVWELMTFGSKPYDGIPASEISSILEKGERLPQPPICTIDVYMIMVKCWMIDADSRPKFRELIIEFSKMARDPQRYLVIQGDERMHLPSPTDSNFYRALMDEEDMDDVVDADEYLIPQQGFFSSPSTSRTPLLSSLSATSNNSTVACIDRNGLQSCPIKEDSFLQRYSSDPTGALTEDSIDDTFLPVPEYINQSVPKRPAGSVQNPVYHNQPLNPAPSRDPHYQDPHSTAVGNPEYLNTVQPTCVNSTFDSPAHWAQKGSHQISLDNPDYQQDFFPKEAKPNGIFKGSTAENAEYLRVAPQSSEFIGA

On to `CC(C)C1NC(=O)Cc2ccc(Cl)cc2Nc2ncnc3cc(OCCF)c(cc23)OCCCNC1=O` (stereo not drawn) [Compound (Ia)], for which the “change of T/M ratios of Compound (I) after competition” value in data set [1] was −55%. In addition, in data set [2], the “inhibition of EGF-induced EGFR Y1068 phosphorylation” value is “almost full inhibition observed at 1 μM”. Besides, in [3], the “inhibition of constitutively active double mutant EGFR” value was “partially inhibit EGFR activity at 10 μM”. The IC50 in data set [4] was 5000 ± 1400 nM; in [5], 62100 nM; in data set [7], 372 nM and 990 nM and 246 nM; in data set [8] it was 3 nM and 8 nM and 4.1 nM; in data set [9], 3.2 nM and 5 nM and 5.7 nM; in [14] it was 34700 ± 24000 nM. Also, the IC50 in [15] amounted to 6 ± 2 nM. Besides, the “concentration at which full inhibition of constitutively active EGFR was observed” value in data set [6] was around 100 nM. In addition, in data set [10], the “change of uptake of Compound (I) after competition” value came out at 5%. For the same compound, the kinetic solubility in data set [11] came out at 88 µM (≈ 46.6 µg/mL). The intrinsic clearance (microsomal CLint) at 3 μM stood at 7.76 ± 2.53 µL/min/mg in [12] and 37.9 ± 1.89 µL/min/mg in data set [16]. The half-life at 3 μM turned out to be 2.98 h in [12] (read-out: human microsomal stability t1/2) and 0.608 h in data set [16] (read-out: rat microsomal stability t1/2). In addition, the “decrease of T/M ratios of Compound (I) by competition” value in data set [13] turned out to be 52%.
